In PMC4964800 (Bioorganic & medicinal chemistry letters, 2016):

Assays:
Assay type in all cases: cell-based
STAT3 = test: IL-6-induced STAT3 activation high content; details: for IC50: Homo sapiens, CAL-33, read-out: STAT3 IC50; for fold improvement in STAT3 potency compared to original hit 2b: vs 2b; for times less active (STAT3) after exchanging R-substituents of 1a and 2b: compared with 1a and 2b
STAT1 = test: IFN-γ-induced STAT1 pathway activation assay; details: read-out: STAT1 IC50
[1] = tested on: pSTAT3 and STAT3 target gene Cyclin D1; test: Western blot analysis in IL-6-stimulated Cal33 cells; details: IL-6 (50 ng/mL)-stimulated Cal33 cells

| IC50 (STAT3) | IC50 (STAT1) | SMILES | also measured |
| --- | --- | --- | --- |
| 3.8 ± 0.8 µM | > 30 µM | CC1Sc2nnc(-c3cc(-c4ccc(F)cc4)n[nH]3)n2N=C1c1ccccc1 (stereo not drawn) [Compound 20] | fold improvement in STAT3 potency compared to original hit 2b (STAT3): 2–3 fold |
| 4.4 µM | > 50 µM | CC(C)C1Sc2nnc(-c3[nH]nc4c3CCC4)n2N=C1c1ccc(Cl)c(Cl)c1 (stereo not drawn) [Compound 23] |  |
| 7.5 µM | > 50 µM | Clc1ccc(C2=Nn3c(nnc3-c3[nH]nc4c3CCC4)SC2Cc2ccccc2)cc1Cl (stereo not drawn) [Compound 27] |  |
| 6.8 ± 3.7 µM | > 50 µM | Clc1ccc(C2=Nn3c(nnc3-c3[nH]nc4c3CCC4)SC2)cc1Cl [Compound 1a] |  |
|  |  | Clc1ccc(C2=Nn3c(nnc3-c3[nH]nc4c3CCCC4)SC2)cc1Cl [Compound 16] | fold less active than cyclopentyl analog 1a (STAT3; vs 1a): ~ 2 fold |
| 18.6 µM | > 50 µM | CC1(C)Sc2nnc(-c3[nH]nc4c3CCC4)n2N=C1c1ccc(Cl)c(Cl)c1 [Compound 30] |  |
|  | > 50 µM | CC1=Nn2c(nnc2-c2[nH]nc3c2CCC3)SC1 [Compound 10a] |  |
|  | > 50 µM | C1=Nn2c(nnc2-c2[nH]nc3c2CCC3)SC1 [Compound 9a] |  |
|  |  | COc1ccc(C2CSc3nnc(-c4cc(-c5ccccc5)n[nH]4)n3N2C(C)=O)cc1 (stereo not drawn) [Compound 13] | activity in the STAT3 assay (in words) (STAT3): inactive |
|  | > 50 µM | c1ccc(-c2cc(-c3nnc4n3N=C(C3CCCCC3)CS4)[nH]n2)cc1 [Compound 11b] |  |
|  | > 50 µM | Clc1cccc(C2=Nn3c(nnc3-c3[nH]nc4c3CCC4)SC2)c1 [Compound 4a] |  |
| 4.1 µM | > 50 µM | CC(C)CC1Sc2nnc(-c3[nH]nc4c3CCC4)n2N=C1c1ccc(Cl)c(Cl)c1 (stereo not drawn) [Compound 25] |  |
|  | > 50 µM | COc1ccc(C2=Nn3c(nnc3-c3cc(-c4ccccc4)n[nH]3)SC2)cc1 [Compound 6b] |  |
|  |  | COc1ccc(C2CSc3nnc(-c4[nH]nc5c4CCC5)n3N2)cc1 (stereo not drawn) [Compound 12] | activity in the STAT3 assay (in words) (STAT3): inactive |
| 4.2 µM | > 30 µM | COc1ccc(C2=Nn3c(nnc3-c3cc(-c4ccc(F)cc4)n[nH]3)SC2C)cc1 (stereo not drawn) [Compound 21] | fold improvement in STAT3 potency compared to original hit 2b (STAT3): 2–3 fold |
| 21.2 ± 23.5 µM | > 50 µM | c1ccc(C2=Nn3c(nnc3-c3[nH]nc4c3CCC4)SC2)cc1 [Compound 5a] |  |
| 9.1 µM | > 50 µM | COc1ccc(C2=Nn3c(nnc3-c3[nH]nc4c3CCC4)SC2C)cc1 (stereo not drawn) [Compound 18] |  |
|  | > 50 µM | c1cc(C2=Nn3c(nnc3-c3[nH]nc4c3CCC4)SC2)ccn1 [Compound 7a] |  |

| IC50 (STAT3) | IC50 (STAT1) | SMILES | also measured |
| --- | --- | --- | --- |
|  | > 50 µM | COc1ccc(C2=Nn3c(nnc3-c3cc(-c4ccccc4)n[nH]3)SC2CC(C)C)cc1 (stereo not drawn) [Compound 26] |  |
| 9.6 ± 7.8 µM | > 50 µM | Clc1ccc(C2=Nn3c(nnc3-c3cc(-c4ccccc4)[nH]n3)SC2)cc1 [Compound 2b] |  |
|  | > 50 µM | Clc1ccc(C2=Nn3c(nnc3-c3[nH]nc4c3CCC4)SC2)cc1 [Compound 2a] | times less active (STAT3) after exchanging R-substituents of 1a and 2b (STAT3): 3–4 times |
|  | > 50 µM | c1ccc(-c2cc(-c3nnc4n3N=C(c3ccncc3)CS4)[nH]n2)cc1 [Compound 7b] |  |
|  | > 50 µM | COc1ccc(C2=Nn3c(nnc3-c3[nH]nc4c3CCC4)SC2C(C)C)cc1 (stereo not drawn) [Compound 24] |  |
|  | 40.6 ± 7.5 µM | COc1ccc(C2=Nn3c(nnc3-c3[nH]nc4c3CCC4)SC2)cc1 [Compound 6a] |  |
|  |  | Fc1ccc(-c2cc(-c3nnc4n3N=C(c3ccc(Cl)c(Cl)c3)CS4)[nH]n2)cc1 [Compound 14] | fold improvement in STAT3 potency over unsubstituted analog 1b (STAT3; vs 1b): ~ 4 fold |
|  | > 50 µM | C1=Nn2c(nnc2-c2cc(-c3ccccc3)n[nH]2)SC1 [Compound 9b] |  |
|  |  | COc1ccc(C2=Nn3c(nnc3-c3cc(-c4ccc(Cl)cc4)n[nH]3)SC2C)cc1 (stereo not drawn) [Compound 22] | downstream STAT3 target gene Cyclin D1 by Western blot [1]: significant inhibition; pSTAT3 levels by Western blot [1]: pronounced decreases |
|  | > 50 µM | Clc1ccc(C2=Nn3c(nnc3-c3cc(-c4ccccc4)n[nH]3)SC2)s1 [Compound 8b] |  |
|  | > 50 µM | Clc1ccc(C2=Nn3c(nnc3-c3cc(-c4ccccc4)n[nH]3)SC2)cc1Cl [Compound 1b] | times less active (STAT3) after exchanging R-substituents of 1a and 2b (STAT3): 3–4 times |
|  | > 50 µM | CC1=Nn2c(nnc2-c2cc(-c3ccccc3)[nH]n2)SC1 [Compound 10b] |  |
| 3.4 µM | 15 µM | CC1Sc2nnc(-c3cc(-c4ccccc4)n[nH]3)n2N=C1c1ccccc1 (stereo not drawn) [Compound 19] | fold improvement in STAT3 potency compared to original hit 2b (STAT3): 2–3 fold; downstream STAT3 target gene Cyclin D1 by Western blot [1]: significant inhibition; pSTAT3 levels by Western blot [1]: pronounced decreases |
|  | > 50 µM | C1CCC(C2=Nn3c(nnc3-c3[nH]nc4c3CCC4)SC2)CC1 [Compound 11a] |  |
| 5.6 ± 4 µM | 45.9 ± 8.3 µM | Clc1cccc(C2=Nn3c(nnc3-c3cc(-c4ccccc4)n[nH]3)SC2)c1 [Compound 4b] |  |
|  | > 50 µM | Clc1ccc(C2=Nn3c(nnc3-c3[nH]nc4c3CCC4)SC2)s1 [Compound 8a] |  |
| 8.2 ± 2.2 µM | > 50 µM | CC1Sc2nnc(-c3[nH]nc4c3CCC4)n2N=C1c1ccc(Cl)c(Cl)c1 (stereo not drawn) [Compound 17] |  |
|  | > 50 µM | c1ccc(C2=Nn3c(nnc3-c3cc(-c4ccccc4)[nH]n3)SC2)cc1 [Compound 5b] |  |
